In US11529319B2, “Methods and compositions for treating neurological conditions” (priority 2017, dated 2022):

Test system: Mef2c-het mice
Conditions: mouse, in vivo
Text: Mef2c heterozygous knockout (Mef2c-het) mice were created by crossing mice carrying the conventional exon 2-deleted allele of Mef2c (Mef2c^Δ2) with their WT littermates. All procedures for maintaining and using these mice were approved by the Institutional Animal Care and Use Committee (IACUC) at the Sanford Burnham Prebys Medical Discovery Institute. In this study, only male mice were used for the behavioral assays to insure uniformity (either with or without drug treatment). Chronic treatment with memantine, NitroSynapsin (both at 4.6 μmol/kg body weight) or vehicle (PBS) was administered via i.p. injection, twice a day for at least 3 months, starting at ˜2.5 weeks of age. This age was chosen because mice are still juveniles and thus treatment could begin in human at an equivalent stage. […]
For extracellular field recordings, concentric, bipolar tungsten electrodes were used to activate Schaffer collateral/commissural (SC) fibers in the hippocampal CA1 region. […] For baseline recordings, slices were stimulated at 0.033 Hz for 20 min at stimulation intensities of 30-40% of those used to elicit the largest measured fEPSP amplitude. […] Data were sampled at 5 kHz and analyzed using the Clampfit 10 program (Molecular Devices).
Synaptic activity was recorded from dentate gyrus (DG) granule neurons using the whole-cell voltage-clamp technique. […]

SMILES: CCC12CC3(N)CC(CC)(C1)CC(O[N+](=O)[O-])(C3)C2 [NitroSynapsin]
- effect on EPSCs in WT mice: no effects
- effect on LTP in WT mice: no effects
